Two compounds from US20170027902A1, “Use of a Composition Comprising a Flavonol, A Flavonoid, and a Fatty Acid in the Treatment of Oxidative Injuries Due to Mitochondrial Dysfunction” (priority 2014, published 2017) can be followed below.

The subject of this assay is primary mouse cortical cultures. Briefly: Confocal imaging of calcium transients and mitochondrial membrane potential. It counts as cell-based. The protocol:
Embryonic day 16 timed pregnant CD1 out-bred mice were obtained from Charles River Laboratories (Charles River; QC, Canada). Primary cortical neuron cultures were prepared from cerebral cortices of wild type (WT) CD1 mouse embryos as described previously, with the following modifications. Pregnant CD1 females were heavily anaesthetized with isoflurane vapor (Benson Medical Industries, Inc., Markham, ON) before being euthanized by decapitation. The embryonic day 16 (E16) fetuses were immediately removed from the sacrificed pregnant females by cesarean section and placed in ice-cold Hank's Balanced Salt Solution (HBSS) (GIBCO; Invitrogen, Amarillo, Calif.). The meninges were removed from the brains and cortices were isolated under a dissecting microscope. The cortices from each embryo were placed in individual wells of a 24-well plate (Corning; Lowell, Mass.), containing 1 ml of ice-cold PBS (GIBCO; […] Under sterile conditions, the tissue was briefly minced, transferred to 15 ml sterile conical tubes (Corning; Lowell, Mass.) and centrifuged at 350×g for 3 min at room temperature. The dissecting solution was discarded and the cortical neurons were then dissociated trituration with fire-polished glass pipettes followed by incubating in 1 ml of 0.1% trypsin solution (0.1% w/v trypsin (Invitrogen, Amarillo, Calif.) in PBS with 1 mM Mg^2+ and 13 mM glucose) at 37° C. for 15 min. The trypsinization was inhibited by the addition of 0.5 ml of trypsin inhibitor solution that also contained DNase I (0.06% w/v trypsin inhibitor (Invitrogen; Amarillo, Calif.) and 0.01% DNase I (Invitrogen; […] The tubes were mixed briefly and the cells were centrifuged at 350×g for 3 min at room temperature. The trypsin and inhibitor solutions were discarded and each cell pellet was suspended in 1 ml of cortical neuron plating medium (Neurobasal medium (Invitrogen, Amarillo, Calif.) with 10% fetal bovine serum (GIBCO; Invitrogen; Amarillo, Calif.), 2% B27 supplement, 1 mM L-glutamine, and 1% Gentamycin (Invitrogen; […] Cortical neurons were plated in 96-well plates (Corning; Lowell, Mass.) that were pre-coated with poly-D-lysine (PDL; Sigma-Aldrich; Oakville, ON) according to the procedure described by the manufacturer. Briefly, plates were coated immediately before use with 100 μg/ml PDL for 5-10 min (50 μl/well), washed three times with tissue-culture grade water and left to dry for 2 h before cells were introduced. Cortical neurons were plated at a concentration of 1×10^6 cells/ml (100 µl/well) and medium was completely changed the day after plating to serum-free cortical neuron medium (Neurobasal medium with 2% B27 supplement, 5 mM HEPES, 0.5 mM L-glutamine, and 20 μg/ml Gentamycin), which was replaced every 3 days in culture. Cultures were maintained in a humidified, 37° C. incubator with 5% CO2. Experiments were performed on the eighth day in vitro (DIV10). For measurements of mitochondrial membrane potential (ΔΨm), cells were loaded with 25 nM tetrannethylrhodamine methyl ester (TMRM) for 30 min at room temperature and the dye was present during the experiment. TMRM is used in the redistribution mode to assess ΔΨm with a reduction in TMRM fluorescence indicating mitochondrial depolarization. Neurons were loaded for 30 min at room temperature with X-rhod-1 AM (0.5 μM) and Fluo-3 AM (0.5 μM) (Molecular Probes, Invitrogen) prior to imaging in HEPES-buffered salt solution (HBSS) composed of (mM): 156 NaCl, 3 KCl, 2 MgSO4, 1.25 KH2PO4, 2 CaCl2, 10 glucose and 10 HEPES, pH adjusted to 7.35 with NaOH. Confocal images were obtained using a 510 CLSM (Zeiss, Thornwood, N.Y.) equipped with a META detection system and a […] oil-immersion objective. The 488 nm Argon laser line was used to excite fluo-3 fluorescence, which was measured using a bandpass filter from 505 to 550 nm. Illumination intensity was kept to a minimum (at 0.1-0.2% of laser output) to avoid phototoxicity and the pinhole was set to give an optical slice of 2 μm. […]

As for `N#CC(C#N)=NNc1ccc(OC(F)(F)F)cc1` [FCCP, carbonyl cyanide-4-(trifluoromethoxy)phenylhydrazone], under “added after Q and thapsigargin”, the TMRM fluorescence entry is “complete loss” and the “[Ca2+]c” value was “sharp increase”.

As for `C/C=C(/C)C(=O)O[C@H]1C(C)=C2[C@H]([C@@H]1OC(=O)CCCCCCC)[C@@](C)(OC(C)=O)C[C@H](OC(=O)CCC)[C@@]1(O)[C@H]2OC(=O)[C@@]1(C)O` [thapsigargin], the “[Ca2+]c oscillations stimulated by Q” value (5 μM, depletion of ER Ca2+ stores) is “blocked”.
